Assays:
Assay in all cases: Kinase profiling in a biochemical assay panel (mobility shift assays and ELISA), %-inhibition at 1 μM; selectivity entropy
[1] = molecular target: panel of more than 300 wild-type and mutant kinases (313 kinase panel) (Homo sapiens, UniProt Q14289); conditions: kinase PYK2; 1 μM
[2] = molecular target: panel of more than 300 wild-type and mutant kinases (313 kinase panel) (Homo sapiens, UniProt P04049)
[3] = molecular target: panel of more than 300 wild-type and mutant kinases (313 kinase panel) (Homo sapiens, UniProt P45983); conditions: kinase JNK1; compound at 1 μM
[4] = molecular target: panel of more than 300 wild-type and mutant kinases (313 kinase panel) (Homo sapiens, UniProt Q9P0L2); conditions: kinase MARK1; compound at 1 μM
[5] = molecular target: panel of more than 300 wild-type and mutant kinases (313 kinase panel) (Homo sapiens, UniProt Q9NYA1); conditions: kinase SPHK1; 1 μM
[6] = molecular target: panel of more than 300 wild-type and mutant kinases (313 kinase panel) (Homo sapiens, UniProt P07949, S891A); conditions: kinase RET(S891A); 1 μM
[7] = molecular target: T1, panel of more than 300 wild-type and mutant kinases (313 kinase panel) (Homo sapiens, UniProt Q99759); conditions: kinase MAP3K3; compound at 1 μM
T1 sequence (Q99759 1-626): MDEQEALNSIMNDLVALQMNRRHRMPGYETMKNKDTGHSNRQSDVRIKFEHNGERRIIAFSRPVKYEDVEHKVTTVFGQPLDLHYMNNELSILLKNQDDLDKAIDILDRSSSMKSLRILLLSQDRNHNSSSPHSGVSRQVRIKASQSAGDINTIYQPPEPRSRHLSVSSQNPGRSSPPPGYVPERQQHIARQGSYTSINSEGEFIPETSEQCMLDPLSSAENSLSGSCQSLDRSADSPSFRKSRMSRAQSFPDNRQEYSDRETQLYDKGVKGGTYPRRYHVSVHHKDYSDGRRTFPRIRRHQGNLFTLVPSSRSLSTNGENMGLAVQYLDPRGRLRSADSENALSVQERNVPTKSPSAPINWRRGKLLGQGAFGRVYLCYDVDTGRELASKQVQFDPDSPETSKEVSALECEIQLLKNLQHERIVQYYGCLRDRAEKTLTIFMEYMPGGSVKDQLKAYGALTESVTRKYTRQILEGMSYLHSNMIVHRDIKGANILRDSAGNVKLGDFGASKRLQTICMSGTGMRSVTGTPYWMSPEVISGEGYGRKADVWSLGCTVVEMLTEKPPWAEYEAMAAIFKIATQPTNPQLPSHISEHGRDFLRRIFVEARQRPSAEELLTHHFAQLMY

[8] = molecular target: panel of more than 300 wild-type and mutant kinases (313 kinase panel) (Homo sapiens, UniProt P24941); conditions: 1 μM compound; for %-inhibition, CDK2/CycA2: kinase CDK2/CycA2; for %-inhibition, CDK2/CycE1: kinase CDK2/CycE1
[9] = molecular target: T2, panel of more than 300 wild-type and mutant kinases (313 kinase panel) (Homo sapiens, UniProt Q96PN8); conditions: kinase TSSK3; compound at 1 μM
T2 sequence (Q96PN8 1-268): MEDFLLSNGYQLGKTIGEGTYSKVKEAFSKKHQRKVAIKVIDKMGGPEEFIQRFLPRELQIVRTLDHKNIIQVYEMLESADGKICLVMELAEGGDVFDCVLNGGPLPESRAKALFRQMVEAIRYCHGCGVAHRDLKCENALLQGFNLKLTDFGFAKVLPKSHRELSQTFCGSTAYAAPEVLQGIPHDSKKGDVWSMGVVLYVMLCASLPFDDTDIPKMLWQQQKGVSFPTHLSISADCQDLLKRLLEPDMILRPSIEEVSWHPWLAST

[10] = molecular target: panel of more than 300 wild-type and mutant kinases (313 kinase panel) (Homo sapiens, UniProt P05129); conditions: kinase PKCγ; 1 μM
[11] = molecular target: panel of more than 300 wild-type and mutant kinases (313 kinase panel) (Homo sapiens, UniProt P36507); conditions: kinase MAP2K2; compound at 1 μM
[12] = molecular target: panel of more than 300 wild-type and mutant kinases (313 kinase panel) (Homo sapiens, UniProt Q00526); conditions: kinase CDK3/CycE1; 1 μM compound
Sequence of panel of more than 300 wild-type and mutant kinases (313 kinase panel) (Homo sapiens, UniProt Q00526) (Q00526 whole entry, change not shown): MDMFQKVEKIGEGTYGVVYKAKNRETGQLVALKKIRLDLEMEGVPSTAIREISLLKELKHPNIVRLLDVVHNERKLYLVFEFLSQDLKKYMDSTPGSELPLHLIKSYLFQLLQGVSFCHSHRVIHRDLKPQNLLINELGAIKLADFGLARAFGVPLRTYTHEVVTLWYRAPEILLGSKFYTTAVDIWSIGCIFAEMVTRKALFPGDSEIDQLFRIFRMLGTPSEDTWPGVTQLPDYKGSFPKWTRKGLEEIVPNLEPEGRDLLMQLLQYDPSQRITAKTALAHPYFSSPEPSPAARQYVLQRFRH

Sequence of panel of more than 300 wild-type and mutant kinases (313 kinase panel) (Homo sapiens, UniProt Q14289) (Q14289 whole entry, change not shown): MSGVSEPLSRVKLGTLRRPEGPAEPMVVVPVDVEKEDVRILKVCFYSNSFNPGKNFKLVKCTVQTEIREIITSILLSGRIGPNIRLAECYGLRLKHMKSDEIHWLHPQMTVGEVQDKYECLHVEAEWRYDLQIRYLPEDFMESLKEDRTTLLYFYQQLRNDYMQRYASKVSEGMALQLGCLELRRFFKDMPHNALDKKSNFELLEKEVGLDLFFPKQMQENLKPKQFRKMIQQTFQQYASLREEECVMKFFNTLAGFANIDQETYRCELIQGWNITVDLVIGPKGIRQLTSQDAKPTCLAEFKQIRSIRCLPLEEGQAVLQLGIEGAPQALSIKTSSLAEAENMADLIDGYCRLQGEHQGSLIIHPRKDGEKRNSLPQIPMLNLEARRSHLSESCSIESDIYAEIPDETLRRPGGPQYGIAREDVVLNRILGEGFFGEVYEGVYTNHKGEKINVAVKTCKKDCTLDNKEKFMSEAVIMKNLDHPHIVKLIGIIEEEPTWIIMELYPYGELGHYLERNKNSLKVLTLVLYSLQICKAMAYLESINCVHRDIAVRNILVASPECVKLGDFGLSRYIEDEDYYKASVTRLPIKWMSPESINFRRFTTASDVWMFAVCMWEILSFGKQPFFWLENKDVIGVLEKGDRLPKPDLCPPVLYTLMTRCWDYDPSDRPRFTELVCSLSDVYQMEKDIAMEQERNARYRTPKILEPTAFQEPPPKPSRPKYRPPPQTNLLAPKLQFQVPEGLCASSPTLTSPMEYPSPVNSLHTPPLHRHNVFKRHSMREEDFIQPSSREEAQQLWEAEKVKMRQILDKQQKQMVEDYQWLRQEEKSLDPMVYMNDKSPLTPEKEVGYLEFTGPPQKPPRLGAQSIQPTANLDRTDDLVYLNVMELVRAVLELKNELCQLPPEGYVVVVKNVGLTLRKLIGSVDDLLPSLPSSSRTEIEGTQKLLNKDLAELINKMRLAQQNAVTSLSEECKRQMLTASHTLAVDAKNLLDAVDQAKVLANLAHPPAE
Sequence of panel of more than 300 wild-type and mutant kinases (313 kinase panel) (Homo sapiens, UniProt Q9P0L2) (Q9P0L2 whole entry, change not shown): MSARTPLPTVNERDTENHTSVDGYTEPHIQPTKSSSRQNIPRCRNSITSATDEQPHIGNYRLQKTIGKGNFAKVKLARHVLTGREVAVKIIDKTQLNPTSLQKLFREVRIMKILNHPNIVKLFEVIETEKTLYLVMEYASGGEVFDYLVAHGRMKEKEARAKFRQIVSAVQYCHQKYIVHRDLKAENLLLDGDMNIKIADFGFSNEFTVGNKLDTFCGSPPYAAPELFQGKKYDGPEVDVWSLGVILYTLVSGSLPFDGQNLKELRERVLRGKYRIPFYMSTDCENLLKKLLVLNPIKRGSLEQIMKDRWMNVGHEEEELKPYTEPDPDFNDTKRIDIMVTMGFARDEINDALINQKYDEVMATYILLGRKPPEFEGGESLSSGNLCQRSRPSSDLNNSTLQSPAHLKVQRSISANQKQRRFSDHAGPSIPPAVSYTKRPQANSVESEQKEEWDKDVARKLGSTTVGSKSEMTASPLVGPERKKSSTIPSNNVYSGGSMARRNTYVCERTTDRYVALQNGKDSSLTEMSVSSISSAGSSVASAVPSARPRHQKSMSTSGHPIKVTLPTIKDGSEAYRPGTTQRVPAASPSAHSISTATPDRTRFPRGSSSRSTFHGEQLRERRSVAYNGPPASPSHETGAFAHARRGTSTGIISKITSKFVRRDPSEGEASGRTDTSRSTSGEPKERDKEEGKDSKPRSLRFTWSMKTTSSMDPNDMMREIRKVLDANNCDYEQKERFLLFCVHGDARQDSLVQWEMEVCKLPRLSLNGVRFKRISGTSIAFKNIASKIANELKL
Sequence of panel of more than 300 wild-type and mutant kinases (313 kinase panel) (Homo sapiens, UniProt P07949, S891A) (P07949 29-1114 S891A): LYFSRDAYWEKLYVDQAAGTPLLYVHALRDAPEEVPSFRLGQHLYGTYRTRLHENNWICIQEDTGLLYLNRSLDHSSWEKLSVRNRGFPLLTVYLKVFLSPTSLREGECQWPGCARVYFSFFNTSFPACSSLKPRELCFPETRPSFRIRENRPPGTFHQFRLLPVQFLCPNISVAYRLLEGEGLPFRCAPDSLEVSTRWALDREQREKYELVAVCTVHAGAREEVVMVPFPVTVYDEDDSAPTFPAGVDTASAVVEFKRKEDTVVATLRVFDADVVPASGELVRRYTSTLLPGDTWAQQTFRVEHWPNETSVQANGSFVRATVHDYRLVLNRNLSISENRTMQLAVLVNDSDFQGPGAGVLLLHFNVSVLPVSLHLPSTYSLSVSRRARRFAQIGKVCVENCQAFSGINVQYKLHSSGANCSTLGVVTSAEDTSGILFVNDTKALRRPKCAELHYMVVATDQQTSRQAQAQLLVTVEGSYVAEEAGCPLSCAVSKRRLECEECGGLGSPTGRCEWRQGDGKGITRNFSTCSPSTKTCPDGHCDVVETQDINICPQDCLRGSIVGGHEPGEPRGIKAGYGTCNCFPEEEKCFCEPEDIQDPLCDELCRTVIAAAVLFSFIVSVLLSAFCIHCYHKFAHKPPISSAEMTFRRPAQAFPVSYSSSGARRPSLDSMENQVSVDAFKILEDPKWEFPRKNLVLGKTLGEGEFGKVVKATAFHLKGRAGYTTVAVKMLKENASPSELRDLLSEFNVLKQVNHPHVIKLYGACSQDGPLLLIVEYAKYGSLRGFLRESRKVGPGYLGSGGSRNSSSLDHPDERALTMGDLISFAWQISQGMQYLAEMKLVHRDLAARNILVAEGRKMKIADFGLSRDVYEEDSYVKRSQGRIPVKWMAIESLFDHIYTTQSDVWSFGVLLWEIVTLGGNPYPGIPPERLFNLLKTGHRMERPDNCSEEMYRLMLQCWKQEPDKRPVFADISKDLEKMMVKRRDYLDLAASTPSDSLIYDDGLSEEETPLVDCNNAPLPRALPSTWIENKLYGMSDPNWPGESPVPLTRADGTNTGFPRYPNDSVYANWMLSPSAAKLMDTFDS
Sequence of panel of more than 300 wild-type and mutant kinases (313 kinase panel) (Homo sapiens, UniProt P45983) (P45983 whole entry, change not shown): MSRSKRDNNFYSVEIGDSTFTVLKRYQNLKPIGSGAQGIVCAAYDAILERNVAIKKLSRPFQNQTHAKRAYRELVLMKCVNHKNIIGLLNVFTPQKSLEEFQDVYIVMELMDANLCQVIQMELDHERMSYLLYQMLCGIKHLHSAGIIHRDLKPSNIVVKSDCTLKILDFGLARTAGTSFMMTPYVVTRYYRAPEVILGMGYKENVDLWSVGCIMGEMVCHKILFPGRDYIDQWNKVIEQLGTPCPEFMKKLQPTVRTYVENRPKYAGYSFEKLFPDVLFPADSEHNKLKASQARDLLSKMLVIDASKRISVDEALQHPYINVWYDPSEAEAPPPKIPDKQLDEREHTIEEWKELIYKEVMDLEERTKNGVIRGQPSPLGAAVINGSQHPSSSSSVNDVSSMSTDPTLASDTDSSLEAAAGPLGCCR
Sequence of panel of more than 300 wild-type and mutant kinases (313 kinase panel) (Homo sapiens, UniProt P04049) (P04049 whole entry, change not shown): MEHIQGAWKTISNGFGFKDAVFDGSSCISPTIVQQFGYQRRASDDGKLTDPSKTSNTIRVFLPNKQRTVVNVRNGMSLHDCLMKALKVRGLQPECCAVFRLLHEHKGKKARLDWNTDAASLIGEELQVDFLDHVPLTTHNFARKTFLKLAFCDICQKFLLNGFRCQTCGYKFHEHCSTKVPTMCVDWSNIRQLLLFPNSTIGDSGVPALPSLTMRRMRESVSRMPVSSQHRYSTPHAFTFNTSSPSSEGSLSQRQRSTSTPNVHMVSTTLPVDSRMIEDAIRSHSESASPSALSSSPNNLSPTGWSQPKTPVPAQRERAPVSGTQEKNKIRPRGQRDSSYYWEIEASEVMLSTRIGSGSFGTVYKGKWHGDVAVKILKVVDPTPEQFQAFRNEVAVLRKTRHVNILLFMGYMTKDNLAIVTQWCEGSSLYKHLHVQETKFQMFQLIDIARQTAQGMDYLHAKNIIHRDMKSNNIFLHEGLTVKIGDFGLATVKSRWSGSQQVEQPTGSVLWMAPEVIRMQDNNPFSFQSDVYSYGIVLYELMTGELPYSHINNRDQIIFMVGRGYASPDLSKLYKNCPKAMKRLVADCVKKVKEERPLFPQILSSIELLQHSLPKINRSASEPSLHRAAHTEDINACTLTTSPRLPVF

CO[C@H]1C[C@@H]2CC[C@@H](C)[C@@](O)(O2)C(=O)C(=O)N2CCCC[C@H]2C(=O)O[C@H]([C@H](C)C[C@@H]2CC[C@@H](OCCO)[C@H](OC)C2)CC(=O)[C@H](C)/C=C(\C)[C@@H](O)[C@@H](OC)C(=O)[C@H](C)C[C@H](C)/C=C/C=C/C=C/1C [everolimus]
%-inhibition of PYK2 [1]: 1.49% | %-inhibition of RAF1 ([2]; kinase RAF1, 1 μM): 14% | %-inhibition of JNK1 [3]: -5% | %-inhibition of MARK1 [4]: -0.63% | %-inhibition of SPHK1 [5]: -16% | %-inhibition of RET(S891A) [6]: -3% | %-inhibition of MAP3K3 [7]: 3.6% | %-inhibition, CDK2/CycA2 [8]: -11% | %-inhibition, CDK2/CycE1 [8]: -14% | %-inhibition of TSSK3 [9]: -3% | %-inhibition of PKCγ [10]: -6.56% | %-inhibition of MAP2K2 [11]: 11% | %-inhibition, CDK3/CycE1 [12]: -4.51%

Cc1ccc(Nc2nccc(N(C)c3ccc4c(C)n(C)nc4c3)n2)cc1S(N)(=O)=O [pazopanib]
%-inhibition of PYK2 [1]: 39% | %-inhibition of RAF1 ([2]; kinase RAF1, 1 μM): 85% | %-inhibition of MARK1 [4]: 2.19% | %-inhibition of SPHK1 [5]: 1.19% | %-inhibition of RET(S891A) [6]: 100% | %-inhibition of MAP3K3 [7]: 77% | %-inhibition, CDK2/CycA2 [8]: -5% | %-inhibition, CDK2/CycE1 [8]: -0.507% | %-inhibition of TSSK3 [9]: 4.41% | %-inhibition of PKCγ [10]: 9% | %-inhibition of MAP2K2 [11]: 1.87% | %-inhibition, CDK3/CycE1 [12]: 0.931%

Cc1ccc(C(=O)Nc2ccc(CN3CCN(C)CC3)c(C(F)(F)F)c2)cc1C#Cc1cnc2cccnn12 [ponatinib]
%-inhibition of PYK2 [1]: 99% | %-inhibition of RAF1 ([2]; kinase RAF1, 1 μM): 96% | %-inhibition of SPHK1 [5]: -20% | %-inhibition of RET(S891A) [6]: 102% | %-inhibition of MAP3K3 [7]: 88% | %-inhibition, CDK2/CycA2 [8]: -9% | %-inhibition, CDK2/CycE1 [8]: 9% | %-inhibition of TSSK3 [9]: -4.67% | %-inhibition of PKCγ [10]: -3% | %-inhibition, CDK3/CycE1 [12]: 20%

N#CC[C@H](C1CCCC1)n1cc(-c2ncnc3[nH]ccc23)cn1 [ruxolitinib]
%-inhibition of PYK2 [1]: 68% | %-inhibition of RAF1 ([2]; 1 µM): 9% | %-inhibition of JNK1 [3]: -3% | %-inhibition of SPHK1 [5]: -15% | %-inhibition of MAP3K3 [7]: 36% | %-inhibition, CDK2/CycA2 [8]: 2.48% | %-inhibition, CDK2/CycE1 [8]: -12% | %-inhibition of TSSK3 [9]: -3% | %-inhibition of PKCγ [10]: 6% | %-inhibition of MAP2K2 [11]: 12% | %-inhibition, CDK3/CycE1 [12]: -9.52%

CCN(CC)CCNC(=O)c1c(C)[nH]c(/C=C2\C(=O)Nc3ccc(F)cc32)c1C [sunitinib]
%-inhibition of PYK2 [1]: 94% | %-inhibition of MAP3K3 [7]: 76% | %-inhibition of PKCγ [10]: 17%

CC(=O)Nc1cccc(-n2c(=O)n(C3CC3)c(=O)c3c(Nc4ccc(I)cc4F)n(C)c(=O)c(C)c32)c1 [trametinib]
%-inhibition of PYK2 [1]: 2.72% | %-inhibition of RAF1 ([2]; kinase RAF1, 1 μM): 61% | %-inhibition of JNK1 [3]: -4.68% | %-inhibition of MARK1 [4]: -17% | %-inhibition of SPHK1 [5]: -11% | %-inhibition of RET(S891A) [6]: -1.24% | %-inhibition of MAP3K3 [7]: -6.63% | %-inhibition, CDK2/CycA2 [8]: 24% | %-inhibition, CDK2/CycE1 [8]: 2.59% | %-inhibition of TSSK3 [9]: -8% | %-inhibition of PKCγ [10]: 0.381% | %-inhibition, CDK3/CycE1 [12]: 0.16%

COc1cc2c(Nc3ccc(Br)cc3F)ncnc2cc1OCC1CCN(C)CC1 [vandetanib]
%-inhibition of PYK2 [1]: 6% | %-inhibition of RAF1 ([2]; kinase RAF1, 1 μM): 41% | %-inhibition of JNK1 [3]: -0.604% | %-inhibition of MARK1 [4]: -14% | %-inhibition of SPHK1 [5]: -13% | %-inhibition of MAP3K3 [7]: 9% | %-inhibition, CDK2/CycA2 [8]: -8% | %-inhibition, CDK2/CycE1 [8]: -21% | %-inhibition of TSSK3 [9]: -2.54% | %-inhibition of PKCγ [10]: -5% | %-inhibition, CDK3/CycE1 [12]: -13%
